In PubChem BioAssay AID1963851 (Molecular Pharmacology Branch, DTP, NCI, 2024):

Tested on: 188146-221-R-J1-PDC complex spheroid viability
Assay: Anticancer human tumor 188146-221-R-J1-PDC patient-derived colon adenocarcinoma cell line growth inhibition [POLQ]
Conditions: for IC50: curve of first compound; for viability, T/C: stronger effect = lower value
How it was run: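 Three-cell-type spheroids modelling solid tumor plus stroma served as the readout system; POL inhibitors were tested individually and in combination, concentration ranges set by clinical Cmax where known.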

[1] = second compound 0.0316 µM, first compound 0.0316 µM
[2] = second compound 0.0316 µM, first compound 0.1 µM
[3] = second compound 0.0316 µM, first compound 0.316 µM
[4] = second compound 0.0316 µM, first compound 1 µM
[5] = second compound 0.0316 µM, first compound 3.16 µM
[6] = second compound 0.0316 µM, first compound 10 µM
[7] = second compound 0.1 µM, first compound 0.0316 µM
[8] = second compound 0.1 µM, first compound 0.1 µM
[9] = second compound 0.1 µM, first compound 0.316 µM
[10] = second compound 0.1 µM, first compound 1 µM
[11] = second compound 0.1 µM, first compound 3.16 µM
[12] = second compound 0.1 µM, first compound 10 µM
[13] = second compound 0.316 µM, first compound 0.0316 µM
[14] = second compound 0.316 µM, first compound 0.1 µM
[15] = second compound 0.316 µM, first compound 0.316 µM
[16] = second compound 0.316 µM, first compound 1 µM
[17] = second compound 0.316 µM, first compound 3.16 µM
[18] = second compound 0.316 µM, first compound 10 µM
[19] = second compound 1 µM, first compound 0.0316 µM
[20] = second compound 1 µM, first compound 0.1 µM
[21] = second compound 1 µM, first compound 0.316 µM
[22] = second compound 1 µM, first compound 1 µM
[23] = second compound 1 µM, first compound 3.16 µM
[24] = second compound 1 µM, first compound 10 µM
[25] = second compound 3.16 µM, first compound 0.0316 µM
[26] = second compound 3.16 µM, first compound 0.1 µM
[27] = second compound 3.16 µM, first compound 0.316 µM
[28] = second compound 3.16 µM, first compound 1 µM
[29] = second compound 3.16 µM, first compound 3.16 µM
[30] = second compound 3.16 µM, first compound 10 µM
[31] = second compound 10 µM, first compound 0.0316 µM
[32] = second compound 10 µM, first compound 0.1 µM
[33] = second compound 10 µM, first compound 0.316 µM
[34] = second compound 10 µM, first compound 1 µM
[35] = second compound 10 µM, first compound 3.16 µM
[36] = second compound 10 µM, first compound 10 µM
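Also: spheroids exposed to compounds for seven days.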
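For viability, T/C in this document: 100% = DMSO vehicle control viability.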

Nc1ccn(C2OC(CO)C(O)C2(F)F)c(=O)n1 (stereo unspecified) + Cc1cccc(N(C)C(=O)C2C(O)CCN2c2nc(C)cc(C(F)(F)F)c2C#N)c1
IC50 (second compound 0.0316 µM): < 31.6 nM | IC50 (second compound 0.1 µM): < 31.6 nM | IC50 (second compound 0.316 µM): < 31.6 nM | IC50 (second compound 1 µM): < 31.6 nM | IC50 (second compound 3.16 µM): < 31.6 nM | IC50 (second compound 10 µM): < 31.6 nM | viability, T/C [1]: 35.5% | viability, T/C [2]: 20.8% | viability, T/C [3]: 14.7% | viability, T/C [4]: 18.1% | viability, T/C [5]: 17.1% | viability, T/C [6]: 10.2% | viability, T/C [7]: 41% | viability, T/C [8]: 23.8% | viability, T/C [9]: 15.2% | viability, T/C [10]: 15.9% | viability, T/C [11]: 14.9% | viability, T/C [12]: 11.3% | viability, T/C [13]: 31.9% | viability, T/C [14]: 20.5% | viability, T/C [15]: 14.2% | viability, T/C [16]: 15% | viability, T/C [17]: 16.9% | viability, T/C [18]: 14.1% | viability, T/C [19]: 28.1% | viability, T/C [20]: 25.9% | viability, T/C [21]: 20.2% | viability, T/C [22]: 16.2% | viability, T/C [23]: 14.3% | viability, T/C [24]: 10.8% | viability, T/C [25]: 24.6% | viability, T/C [26]: 22.5% | viability, T/C [27]: 15.8% | viability, T/C [28]: 16.5% | viability, T/C [29]: 17.8% | viability, T/C [30]: 11.1% | viability, T/C [31]: 31.1% | viability, T/C [32]: 19.1% | viability, T/C [33]: 20.3% | viability, T/C [34]: 22% | viability, T/C [35]: 20.5% | viability, T/C [36]: 11.4%

O=c1[nH]cc(F)c(=O)[nH]1 + COC1C(OC(N)=O)C(O)C(Oc2ccc3c(O)c(NC(=O)c4ccc(O)c(CC=C(C)C)c4)c(=O)oc3c2C)OC1(C)C
IC50 (second compound 0.0316 µM): 1010 nM | IC50 (second compound 0.1 µM): 1240 nM | IC50 (second compound 0.316 µM): 925 nM | IC50 (second compound 1 µM): 984 nM | IC50 (second compound 3.16 µM): 1790 nM | IC50 (second compound 10 µM): 1500 nM | viability, T/C [1]: 107% | viability, T/C [2]: 106% | viability, T/C [3]: 72.7% | viability, T/C [4]: 53.1% | viability, T/C [5]: 39.8% | viability, T/C [6]: 34.9% | viability, T/C [7]: 95.2% | viability, T/C [8]: 102% | viability, T/C [9]: 75.4% | viability, T/C [10]: 53.7% | viability, T/C [11]: 41.4% | viability, T/C [12]: 35% | viability, T/C [13]: 95.8% | viability, T/C [14]: 98.5% | viability, T/C [15]: 75.4% | viability, T/C [16]: 49.3% | viability, T/C [17]: 37.6% | viability, T/C [18]: 36.6% | viability, T/C [19]: 111% | viability, T/C [20]: 101% | viability, T/C [21]: 72.4% | viability, T/C [22]: 49.6% | viability, T/C [23]: 43.8% | viability, T/C [24]: 36% | viability, T/C [25]: 102% | viability, T/C [26]: 92.3% | viability, T/C [27]: 76% | viability, T/C [28]: 52.1% | viability, T/C [29]: 49% | viability, T/C [30]: 41.3% | viability, T/C [31]: 97% | viability, T/C [32]: 90.2% | viability, T/C [33]: 80.7% | viability, T/C [34]: 53.3% | viability, T/C [35]: 43.2% | viability, T/C [36]: 40.6%

O=c1[nH]cc(F)c(=O)[nH]1 + Cc1cccc(N(C)C(=O)C2C(O)CCN2c2nc(C)cc(C(F)(F)F)c2C#N)c1
IC50 (second compound 0.0316 µM): 2440 nM | IC50 (second compound 0.1 µM): 1380 nM | IC50 (second compound 0.316 µM): 1820 nM | IC50 (second compound 1 µM): 1680 nM | IC50 (second compound 3.16 µM): 1340 nM | IC50 (second compound 10 µM): 1690 nM | viability, T/C [1]: 107% | viability, T/C [2]: 91.7% | viability, T/C [3]: 73.5% | viability, T/C [4]: 57.7% | viability, T/C [5]: 50.8% | viability, T/C [6]: 34.5% | viability, T/C [7]: 102% | viability, T/C [8]: 96.7% | viability, T/C [9]: 73.9% | viability, T/C [10]: 52.6% | viability, T/C [11]: 45% | viability, T/C [12]: 37% | viability, T/C [13]: 93% | viability, T/C [14]: 87% | viability, T/C [15]: 80% | viability, T/C [16]: 57% | viability, T/C [17]: 43.5% | viability, T/C [18]: 34.9% | viability, T/C [19]: 79.8% | viability, T/C [20]: 84.6% | viability, T/C [21]: 74.3% | viability, T/C [22]: 57.1% | viability, T/C [23]: 41.7% | viability, T/C [24]: 37.5% | viability, T/C [25]: 90.2% | viability, T/C [26]: 82.5% | viability, T/C [27]: 72.9% | viability, T/C [28]: 50.2% | viability, T/C [29]: 44.7% | viability, T/C [30]: 36.2% | viability, T/C [31]: 91.1% | viability, T/C [32]: 85.5% | viability, T/C [33]: 76.6% | viability, T/C [34]: 51.7% | viability, T/C [35]: 47.9% | viability, T/C [36]: 34.4%
